In ChEMBL document CHEMBL1201862, “PubChem BioAssay data set” (2004):
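Interpolation was linear, between the two tested concentrations surrounding the appropriate level; five concentrations were tested over 48 hours in 96-well plates. Abbreviation: GI50, concentration required for 50% inhibition of growth.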 The source made the active and inactive calls. No stated cut-off is given here; in the data, active = GI50 up to about 1.1 µM and inactive = higher.

What was measured:
Assay in all cases: growth of human tumour cells (NCI), 48 h
A498 = test system: A498
CCRF-CEM = test system: CCRF-CEM
HL-60 = test system: HL-60
LOX IMVI = test system: LOX IMVI
M14 = test system: M14
M19-MEL = test system: M19-MEL
MOLT-4 = test system: MOLT-4
NCI-H226 = test system: NCI-H226
NCI-H23 = test system: NCI-H23
OVCAR-4 = test system: OVCAR-4
SF-268 = test system: SF-268
SF-539 = test system: SF-539
SNB-19 = test system: SNB-19
U-251 = test system: U-251
UACC-62 = test system: UACC-62
XF498 = test system: XF498
MDA-MB-231 = test system: MDA-MB-231
T47D = test system: T47D
DU-145 = test system: DU-145
MDA-N = test system: MDA-N

| SMILES | GI50 (A498) | GI50 (CCRF-CEM) | GI50 (HL-60) | GI50 (LOX IMVI) | GI50 (M14) | GI50 (M19-MEL) | GI50 (MOLT-4) | GI50 (NCI-H226) | GI50 (NCI-H23) | GI50 (OVCAR-4) | GI50 (SF-268) | GI50 (SF-539) | GI50 (SNB-19) | GI50 (U-251) | GI50 (UACC-62) | GI50 (XF498) | GI50 (MDA-MB-231) | GI50 (T47D) | GI50 (DU-145) | GI50 (MDA-N) |
| --- | --- | --- | --- | --- | --- | --- | --- | --- | --- | --- | --- | --- | --- | --- | --- | --- | --- | --- | --- | --- |
| CC(C)OP(=O)(OC(C)C)/C(=N/Nc1ccc([N+](=O)[O-])cc1)Nc1ccc(N/C(=N\Nc2ccc([N+](=O)[O-])cc2)P(=O)(OC(C)C)OC(C)C)cc1 | 16.4 µM (inactive) | 2.95 µM (inactive) | 20.9 µM (inactive) | 12.8 µM (inactive) | 14.5 µM (inactive) | 82.4 µM (inactive) | 2.58 µM (inactive) | 74.1 µM (inactive) | 13.7 µM (inactive) | 35.7 µM (inactive) | > 100 µM (inactive) | 57.3 µM (inactive) | 27.4 µM (inactive) | 13.2 µM (inactive) | 2.2 µM (inactive) | > 100 µM (inactive) |  |  |  |  |
| CCCCCCCCCCCCCCCCCCOP(=O)([O-])OCC[N+](C)(C)C [OCTADECYLPHOSPHONOCHOLINE] | 8.41 µM (inactive) | 0.366 µM (active) | 0.317 µM (active) | 0.863 µM (active) |  | 4.24 µM (inactive) | 0.295 µM (active) | 0.787 µM (active) | 1.13 µM (inactive) |  | 0.807 µM (active) | 1.2 µM (inactive) | 0.849 µM (active) | 0.695 µM (active) | 4.4 µM (inactive) | 12.4 µM (inactive) | 0.0447 µM (active) | < 0.0209 µM (active) |  |  |
| ClCCCN1CCN(CCCl)CC1 | 261 µM (inactive) | 7.62 µM (inactive) | 4.51 µM (inactive) | 59.8 µM (inactive) | 137 µM (inactive) | 226 µM (inactive) | 5.24 µM (inactive) | 215 µM (inactive) | 69.8 µM (inactive) | 186 µM (inactive) | 57.3 µM (inactive) | 35.6 µM (inactive) | 182 µM (inactive) | 118 µM (inactive) | 10.5 µM (inactive) | 46.3 µM (inactive) | 324 µM (inactive) | 95.5 µM (inactive) | 57.3 µM (inactive) | 191 µM (inactive) |
| COC(=O)C(NC(=O)c1ccccc1)C(c1c(O)cc(O)cc1O)P(=O)(OC)OC (stereo not drawn) | > 100 µM (inactive) | 32 µM (inactive) | 74 µM (inactive) | > 100 µM (inactive) | 48.8 µM (inactive) | > 100 µM (inactive) | > 100 µM (inactive) | > 100 µM (inactive) | 69.5 µM (inactive) | > 100 µM (inactive) | > 100 µM (inactive) | > 100 µM (inactive) | > 100 µM (inactive) | > 100 µM (inactive) | 6.73 µM (inactive) | > 100 µM (inactive) |  |  |  |  |
